Here are results for 3 molecules from patent US20240150301A1, “METHODS OF MODULATING ANDROGEN RECEPTOR CONDENSATES” (ETERN BIOPHARMA (SHANGHAI) CO., LTD., priority 2021, published 2024).

For one test, the system named is LNCaP cells. In words: Cell proliferation assay (CellTiter-Glo), LNCaP. It is filed as cell-based. The note with it: Homo sapiens, 96 h, 0.2 nM DHT, 4 days, read-out: LNCaP IC50 AR-positive (cell proliferation). How it is done: (§1) To evaluate the effect of exemplary compounds on proliferation of AR/AR-V7-dependent prostate cancer cells, cell viability assay was performed in LNCaP (AR-positive), 22Rv1 (AR-positive; AR-V7 positive), VCaP (AR-positive; AR-V7 positive), and DU145 (AR-negative) cells, respectively.
(§2) LNCaP cells were seeded in charcoal stripped FBS/phenol red-free RPMI medium in 96-well plates for 24 h before pretreating for 1 h with test compounds prior to addition of 0.2 nM DHT for 4 days. 22Rv1 or VCaP cells were cultured in charcoal stripped FBS/phenol red-free RPMI medium for 24 h before addition of test compounds for 4 days. DU145 cells were seeded in complete medium for 24 h before addition of test compounds for 4 days. Cell proliferation was measured with CellTiter-Glo® Luminescent Cell Viability Assay (Promega). In LNCaP cells, DHT-dependent cell growth is calculated by measuring the difference between vehicle control (DMSO) cells treated with or without 0.2 nM DHT. The IC50 values were determined using the four parameter fit via GraphPad Prism graphing software.

For test [1], the system named is AR or AR-V7 downstream target genes. In words: AR/AR-V7 target gene qPCR assay in 22Rv1 cells. It is filed as cell-based, human. The note with it: 22Rv1, 48 h, RT-qPCR. Here is the method:
To evaluate the effect of exemplary compounds on mRNA expression of AR or AR-V7 downstream target genes, real-time quantitative PCR measurements were performed in prostate cancer cell line 22Rv1 expressing both AR and AR-V7.
22Rv1 cells were cultured in charcoal stripped FBS/phenol red-free RPMI medium for 24 h, and then treated with DMSO or test compounds for additional 48 h prior to RT-qPCR. Briefly, RNA was isolated from cells using RNeasy Mini Kit (Qiagen) following the manufacturer's protocol. RNA was reverse transcribed and subjected to qPCR using PowerUp™ SYBR™ Green Master Mix (Applied Biosystems). The relative quantity of the target genes was calculated using the ΔΔCt method by comparing Ct of the target genes and mean Ct of the housekeeping gene GAPDH.
On the technique in general: In qPCR the cycle at which signal appears reflects the starting amount.

Another test relates to 22Rv1 cells. In words: Cell proliferation assay (CellTiter-Glo), 22Rv1. The note with it: Homo sapiens, 22Rv1, 96 h; 4 days; read-out: 22Rv1 IC50 AR-positive; AR-V7 positive (cell proliferation). The test is classed as cell-based. Here is the method:
as §1, §2

In a further test the test system is DU145 cells. Put plainly: Cell proliferation assay (CellTiter-Glo), DU145. It is filed as cell-based. The note with it: Homo sapiens, DU-145, 96 h; 4 days; read-out: DU145 IC50 AR-negative (cell proliferation). How it is done:
as §1, §2

Test [2] addresses T1, AR-mEGFP nuclear puncta in LNCaP cells (Homo sapiens, UniProt P10275).
T1 construct: expressed in transfected cells; host or cells: LNCaP
T1 sequence (P10275 1-920): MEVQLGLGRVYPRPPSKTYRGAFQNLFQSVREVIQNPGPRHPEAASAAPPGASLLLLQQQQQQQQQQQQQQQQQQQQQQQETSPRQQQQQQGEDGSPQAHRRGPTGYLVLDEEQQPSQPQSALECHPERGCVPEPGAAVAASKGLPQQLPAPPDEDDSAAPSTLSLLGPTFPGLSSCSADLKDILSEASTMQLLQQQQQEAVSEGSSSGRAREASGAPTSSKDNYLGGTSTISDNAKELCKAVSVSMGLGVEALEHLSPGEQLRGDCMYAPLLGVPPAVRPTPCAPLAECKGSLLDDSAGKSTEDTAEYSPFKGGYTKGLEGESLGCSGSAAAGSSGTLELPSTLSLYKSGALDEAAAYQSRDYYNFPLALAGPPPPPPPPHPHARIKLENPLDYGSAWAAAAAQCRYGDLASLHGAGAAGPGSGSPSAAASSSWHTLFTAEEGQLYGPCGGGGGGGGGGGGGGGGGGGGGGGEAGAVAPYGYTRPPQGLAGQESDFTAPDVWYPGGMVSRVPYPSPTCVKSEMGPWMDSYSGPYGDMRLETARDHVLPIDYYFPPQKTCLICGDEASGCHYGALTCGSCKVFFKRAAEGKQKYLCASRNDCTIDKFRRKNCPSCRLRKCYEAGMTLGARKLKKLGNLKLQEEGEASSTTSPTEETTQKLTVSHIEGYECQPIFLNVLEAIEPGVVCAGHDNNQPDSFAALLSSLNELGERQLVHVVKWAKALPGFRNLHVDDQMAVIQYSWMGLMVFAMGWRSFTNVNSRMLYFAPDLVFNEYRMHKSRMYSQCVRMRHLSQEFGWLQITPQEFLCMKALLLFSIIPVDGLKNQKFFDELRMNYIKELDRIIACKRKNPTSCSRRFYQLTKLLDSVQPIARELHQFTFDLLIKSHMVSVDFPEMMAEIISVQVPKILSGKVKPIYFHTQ
In words: AR phase separation inhibition IC50 testing (nuclear puncta imaging). It is filed as cell-based. Particulars: for IC50: LNCaP, compound 3 h before 20 nM DHT, 3 h DHT. Here is the method:
Nuclear Puncta Imaging for Compounds IC50 Determination • LNCaP cells were cultured in a 10-cm dish. Cells were transfected with AR (AR or AR F877L/T878A)-mEGFP expression plasmids (pMSCV vector, 12 μg plasmid per 10-cm dish). 12 hours after transfection, medium were replaced with steroid hormone-free and phenol red-free RPMI1640 (starvation medium) and continued to starve for another 24 hours. Cells (80 μl, 20,000 per well) were seeded in a 96-well glass bottom plate (Cellvis, P96-1.5H-N) and cultured for another 24 hours. Then cells were incubated with 10× serial-diluted compounds […] for 3 hours before 20 nM DHT stimulation […]. After 3 hours DHT addition, cells were fixed with equal volume pre-warmed 8% PFA for 30 minutes and subsequently replaced with 100 μl PBS. Nuclear puncta images were acquired with Operetta CLS (Perkin Elmer) equipped with 60× water immersion lens (40 fields per well). The images were analyzed with Operetta built-in analysis modules. Nuclei were found from illumination corrected images with find nuclei module (type M) and filtered out low intensity nuclei. Subsequently puncta were first identified using find spot module (type A) and classified to high confident puncta and low confident puncta with PhenoLOGIC machine learning plug-in. For better representation, only high confident puncta were kept. The analyzed image puncta data were exported and statistics were processed with R/Bioconductor. The specific IC50 values were calculated by R/drc package (four-parameter log-logistic function).

For `CC(C)(c1ccc(OCc2ccnc(N=S3(=O)CCNCC3)n2)cc1)c1cc(Cl)c(OCCCl)c(C#N)c1` [Compound 6, 3-chloro-2-(2-chloroethoxy)-5-(2-(4-((2-((1-oxido-1λ^6-thiomorpholin-1-ylidene)amino)pyrimidin-4-yl)methoxy)phenyl)propan-2-yl)benzonitrile], the IC50 in the test on LNCaP cells is 0.86 µM; in the test with 22Rv1 cells, 3.24 µM; in the test on DU145 cells, greater than 20 µM; in test [2], 3.6 µM. Besides, in test [1], the “mRNA expression of target genes of either AR or AR-V7” value is given as “inhibited mRNA expression”. Also, in test [2], the “AR phase separation (FIG. 7)” value is recorded as “inhibited AR phase separation”.
`CC(C)(c1ccc(OCc2ccnc(NS(C)(=O)=O)n2)cc1)c1cc(Cl)c(OCCCl)c(C#N)c1` [Compound AA, N-(4-((4-(2-(3-chloro-4-(2-chloroethoxy)-5-cyanophenyl)propan-2-yl)phenoxy)methyl)pyrimidin-2-yl) methane sulfonamide, reference compound]: the IC50 with LNCaP cells was 7.01 µM; in the test with 22Rv1 cells, greater than 20 µM; in the test with DU145 cells, 17.2 µM; in test [2] it was greater than 20 µM. Besides, the “mRNA expression of target genes of either AR or AR-V7” value in test [1] was “inhibited mRNA expression”. Moreover, the “AR phase separation (FIG. 7)” value in test [2] is given as “did not show inhibition”.
As for `CC(C)(c1ccc(C#Cc2cnc(NS(C)(=O)=O)nc2)cc1)c1cc(Cl)c(OCCCl)c(C#N)c1` [Compound 60, N-(5-((4-(2-(3-chloro-4-(2-chloroethoxy)-5-cyanophenyl)propan-2-yl)phenyl)ethynyl)pyrimidin-2-yl)methanesulfonamide], in test [2], the “AR phase separation (FIG. 7)” value is on record as “inhibited AR phase separation” and the IC50 was 2.5 µM.
